Measurements as given in ChEMBL document CHEMBL1140402, “SAR, species specificity, and cellular activity of cyclopentene dicarboxylic acid amides as DHODH inhibitors” (Bioorg Med Chem Lett, 2005).

Experiments:
[1] = biological target: Dihydroorotate dehydrogenase (quinone), mitochondrial (Homo sapiens, UniProt Q02127); experiment: Inhibition of N-terminally truncated recombinant human dihydroorotate dehydrogenase using in vitro enzyme assay
[2] = biological target: Dihydroorotate dehydrogenase (quinone), mitochondrial (Mus musculus, UniProt O35435); experiment: Inhibitory activity against mouse dihydroorotate dehydrogenase
[3] = biological target: Dihydroorotate dehydrogenase (quinone), mitochondrial (Rattus norvegicus, UniProt Q63707); experiment: Inhibitory activity against rat dihydroorotate dehydrogenase
[4] = Inhibitory activity (proliferation) against human peripheral blood mononuclear cells stimulated with Phytohemagglutininin-L (value range: 0.175-0.327); format: functional
[5] = Inhibitory activity (proliferation) against human peripheral blood mononuclear cells stimulated with Phytohemagglutininin-L; format: functional

Dihydroorotate dehydrogenase (quinone), mitochondrial (Homo sapiens, UniProt Q02127), sequence (Q02127 whole entry, the tested form may be a part): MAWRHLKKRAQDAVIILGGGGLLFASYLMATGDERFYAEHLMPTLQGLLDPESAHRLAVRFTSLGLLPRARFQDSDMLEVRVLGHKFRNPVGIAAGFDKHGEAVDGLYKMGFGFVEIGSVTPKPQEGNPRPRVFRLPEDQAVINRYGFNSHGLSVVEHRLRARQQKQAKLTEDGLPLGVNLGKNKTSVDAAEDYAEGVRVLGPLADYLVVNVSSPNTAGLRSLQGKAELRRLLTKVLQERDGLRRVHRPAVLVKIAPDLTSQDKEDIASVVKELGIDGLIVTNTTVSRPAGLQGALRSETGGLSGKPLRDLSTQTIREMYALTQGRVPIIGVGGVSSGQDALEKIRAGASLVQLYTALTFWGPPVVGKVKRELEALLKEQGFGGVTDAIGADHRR
Dihydroorotate dehydrogenase (quinone), mitochondrial (Rattus norvegicus, UniProt Q63707), sequence (Q63707 whole entry): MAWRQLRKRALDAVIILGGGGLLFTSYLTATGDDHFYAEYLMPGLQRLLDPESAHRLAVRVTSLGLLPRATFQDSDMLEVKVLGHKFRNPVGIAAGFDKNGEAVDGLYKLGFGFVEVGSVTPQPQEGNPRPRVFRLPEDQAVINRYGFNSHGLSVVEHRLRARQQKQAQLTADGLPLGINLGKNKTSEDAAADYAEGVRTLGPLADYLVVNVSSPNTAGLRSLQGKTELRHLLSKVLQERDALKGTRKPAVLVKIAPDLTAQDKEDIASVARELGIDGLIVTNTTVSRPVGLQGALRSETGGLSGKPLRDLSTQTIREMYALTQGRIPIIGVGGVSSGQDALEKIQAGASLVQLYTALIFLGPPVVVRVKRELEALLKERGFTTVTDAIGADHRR
Dihydroorotate dehydrogenase (quinone), mitochondrial (Mus musculus, UniProt O35435), sequence (O35435 whole entry): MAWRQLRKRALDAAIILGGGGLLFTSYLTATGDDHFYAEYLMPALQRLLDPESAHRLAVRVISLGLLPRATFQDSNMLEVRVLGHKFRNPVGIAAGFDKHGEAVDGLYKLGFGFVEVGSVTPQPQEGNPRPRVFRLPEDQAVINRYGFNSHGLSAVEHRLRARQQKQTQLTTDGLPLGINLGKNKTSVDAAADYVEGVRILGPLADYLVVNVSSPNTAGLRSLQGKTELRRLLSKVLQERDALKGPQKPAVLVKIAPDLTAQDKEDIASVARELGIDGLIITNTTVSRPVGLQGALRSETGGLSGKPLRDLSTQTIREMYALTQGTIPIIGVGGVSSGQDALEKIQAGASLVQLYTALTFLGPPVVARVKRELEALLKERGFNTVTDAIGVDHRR

| IC50 [1] [µM] | Structure (SMILES) | also measured |
| --- | --- | --- |
| 0.667 | O=C(O)C1=C(C(=O)Nc2ccc(-c3ccccc3)cc2)CSC1 | – |
| 0.36 | COc1cccc(-c2ccc(NC(=O)C3=C(C(=O)O)COC3)c(F)c2)c1 | – |
| – | O=C(O)C1=C(C(=O)Nc2c(F)c(F)c(-c3cccc(OC(F)(F)F)c3)c(F)c2F)CCC1 | IC50 [2]: 0.422 µM; IC50 [3]: 0.078 µM; IC50 [4]: 0.327 µM |
| 0.68 | COc1cccc(-c2ccc(NC(=O)C3=C(C(=O)O)C(O)CC3)c(F)c2)c1 (configuration not stated) | – |
| – | O=C(O)C1=C(C(=O)Nc2ccc(-c3ccccc3)cc2)CCC1 | IC50 [3]: 1.5 µM |
| 3.8 | O=C(O)C1=C(C(=O)Nc2ccc(-c3ccccc3)cc2)CS(=O)(=O)C1 | – |
| 0.004 | O=C(O)C1=C(C(=O)Nc2c(F)c(F)c(-c3cccc(OC(F)(F)F)c3)c(F)c2F)CSC1 | – |
| 0.173 | O=C(O)C1=C(C(=O)Nc2cc(Br)c(OCc3ccccc3)c(Br)c2)CSC1 | – |
| – | COc1cccc(-c2ccc(NC(=O)C3=C(C(=O)O)CCC3)c(F)c2)c1 [VIDOFLUDIMUS] | IC50 [5]: 13 µM |
| – | C/C(O)=C(\C#N)C(=O)Nc1ccc(C(F)(F)F)cc1 [TERIFLUNOMIDE] | IC50 [5]: 108 µM |
| – | O=C(O)C1=C(C(=O)Nc2c(F)cc(-c3cccc(OC(F)(F)F)c3)cc2F)CCC1 | IC50 [2]: 2 µM; IC50 [3]: 0.504 µM; IC50 [5]: 15 µM |
| 2 | O=C(O)C1=C(C(=O)Nc2ccc(OCc3ccccc3)cc2)CCC1 | – |
| 0.011 | O=C(O)C1=C(C(=O)Nc2ccc(OCc3c(F)cccc3Cl)c(Cl)c2)CCC1 | – |
| 0.205 | O=C(O)C1=C(C(=O)Nc2c(F)cc(-c3cccc(OC(F)(F)F)c3)cc2F)COC1 | – |
| 1.46 | COc1cccc(-c2ccc(NC(=O)C3=C(C(=O)O)CCC3O)c(F)c2)c1 (configuration not stated) | – |

| Structure (SMILES) | IC50 [1] [µM] | also measured |
| --- | --- | --- |
| O=C(O)C1=C(C(=O)Nc2c(F)cc(-c3cccc(OC(F)(F)F)c3)cc2F)CSC1 | 0.015 | – |
| COc1cccc(-c2ccc(NC(=O)C3=C(C(=O)O)CSC3)c(F)c2)c1 | 0.131 | – |
| O=C(O)C1=C(C(=O)Nc2c(F)c(F)c(-c3cccc(OC(F)(F)F)c3)c(F)c2F)COC1 | 0.058 | – |
| O=C(O)C1=C(C(=O)Nc2cc(Br)c(OCc3ccccc3)c(Br)c2)CCC1 | 0.127 | – |
| O=C(O)C1=C(C(=O)Nc2ccc(OCc3c(F)cccc3Cl)c(Cl)c2)COC1 | 0.041 | IC50 [2]: 1.8 µM; IC50 [3]: 1.2 µM; IC50 [5]: 1 µM |
